≈ marks a conversion by molar mass, not a printed value. Like-named read-outs stand apart in the source and are kept apart here. Marks after values point to notes of the source that are not given here.
Tests used:
[1] = Lethal dose (LD50) determination; assay type: in vivo
[2] = test system: MDA 468 mammary (ER-/EGFR+); assay: In vitro cytotoxicity assay; assay type: cell-based, human; details: Homo sapiens
Text: (§1) This is illustrated in Tables 1 and 2 at the end of the present description which show in vitro test results obtained in various sets of experiments for the cytotoxic activity of this compound CJM 126 against a range of human tumour cell lines, expressed in terms of IC50 values (concentration or dosage required to reduce cell growth or proliferation by 50%) calculated from dose-effect curves plotted for cultures of the cells in question.
(§2) In carrying out the above in vitro studies, the method used for conducting the cytotoxicity assays was generally substantially as follows: • Cells were maintained in a continuous logarithmic culture in Dulbecco's medium supplemented with 10% fetal calf serum and penicillin (100 IU/ml) and streptomycin (100 µg/ml). The cells were mildly trypsinized for passage and for use in assays. On day zero, 100µl of trypsinized tumour cells (1 x 10^4/ml) were plated in the wells of 96-well flat-bottom microtiter plates. […] On day two 50µl of the highest drug concentration was added to the wells of column 12 and from there serially diluted 3-fold to column 1 by serial transfer of 50µl using an 8-channel micropipette. The final volume of column 1 was adjusted to 100µl. No additions were made to the wells of rows A and B, which served as controls. The plates were further incubated for 5 days at 37°C and 5% CO2 in air. Each compound was tested in duplicate. • On day 7 the test was terminated by the addition of 100µl saline containing 0.002% w/v propidium iodide (Sigma), 0.3% drawing ink (Staedtler "Marsmatic 745" - Trade Mark) and 0.5% Triton X-100. The plates were kept at 4°C overnight before reading on an inverted microscope equipped with an automated scanning stage. Fluorescence intensity was measured in arbitrary units by a photomultiplier. An HP-87 computer controlled the movement of the stage and also collected and processed the data from the multiplier. • For each compound tested a dose-response curve was obtained and the IC50 value (the drug concentration at 50% inhibition of cell growth) was calculated.

[3] = test system: A2780 ovarian carcinoma; assay: In vitro cytotoxicity assay; assay type: cell-based, human
Text: as §1, §2

[4] = test system: NCI (National Cancer Institute, U.S.A.) panel of human tumour cell lines; assay: NCI tumour cell line panel test; assay type: cell-based; details: panel contains no breast cancer cell lines
[5] = test system: A431 cells; assay: In vitro growth assay; assay type: cell-based; details: range of concentrations 0.1nM-10µM
Procedure: No effect was observed, for example, on the growth of A431 cells as a result of exposure to CJM 126 over a range of concentrations (0.1nM-10µM).
as §2, with “Each compound was tested in duplicate. • On day 7 the test was terminated by the addition of 100µl saline containing 0.002% w/v propidium iodide (Sigma), 0.3% drawing ink (Staedtler "Marsmatic 745" - Trade Mark) and 0.5% Triton X-100.” left out, “An HP-87 computer controlled the movement of the stage and also collected and processed the data from the multiplier. • For each compound tested a dose-response curve was obtained and the IC50 value (the drug concentration at 50% inhibition of cell growth) was calculated.” left out

[6] = test system: human MDA 468 xenograft tumours; assay: In vivo activity against MDA 468 xenograft; set-up: species or system nude mice
Procedure: The effect of CJM 126 (0.1, 0.01 and 0.001mg/kg) has also been investigated in nude mice bearing human MDA 468 xenograft tumours.

[7] = test system: MCF-7 mammary carcinoma cells; assay: In vitro cytotoxicity assay (cell growth, propidium iodide fluorescence); assay type: cell-based, human; details: for IC50: Homo sapiens; for effect on cell growth: later series of experiments
Text: as §1, §2

[8] = test system: MCF-7 mammary carcinoma; assay: In vivo activity against MCF-7 tumour implanted s.c.; details: i.p., 120 mg/kg/day, qd 6, 13, 20
[9] = target: EGFR tyrosine kinase (Homo sapiens, UniProt P00533); assay: Western blot analyses with anti-phosphotyrosine primary antibody; assay type: cell-based; details: unstimulated or EGF stimulated
[10] = test system: MCF-7 mammary carcinoma; details: mouse, in vivo, ip, 120 mg/kg
[11] = target: EGFR (Homo sapiens, UniProt P00533); assay: Displacement of iodinated EGF from EGFR; assay type: binding; details: 1µM, 10µM and 100µM
[12] = Aqueous solubility; assay type: physicochemical; details: water
Procedure: The latter was first obtained (as yellow crystals, m.p. 229-231°C, crystallised from methanol or dimethyl formamide) either via Route C (71% yield) from 2-aminothiophenol and 4-nitrobenzoyl chloride, or via Route D (10% yield) from the corresponding thiobenzanilide and potassium ferricyanide.

[13] = test system: P388R8/22 (multidrug resistant) cells; assay: In vitro cytotoxicity assay; assay type: cell-based
Procedure: as §2, with “An HP-87 computer controlled the movement of the stage and also collected and processed the data from the multiplier. • For each compound tested a dose-response curve was obtained and the IC50 value (the drug concentration at 50% inhibition of cell growth) was calculated.” left out

[14] = test system: P388 cells; assay: In vitro cytotoxicity assay; assay type: cell-based; details: Mus musculus
Procedure: as §2, with “An HP-87 computer controlled the movement of the stage and also collected and processed the data from the multiplier. • For each compound tested a dose-response curve was obtained and the IC50 value (the drug concentration at 50% inhibition of cell growth) was calculated.” left out

[15] = test system: MCF 7-ADR mammary; assay: In vitro cytotoxicity and growth stimulation assay; assay type: cell-based, human
Text: as §1, §2

Chain of EGFR tyrosine kinase (P00533 25-1210): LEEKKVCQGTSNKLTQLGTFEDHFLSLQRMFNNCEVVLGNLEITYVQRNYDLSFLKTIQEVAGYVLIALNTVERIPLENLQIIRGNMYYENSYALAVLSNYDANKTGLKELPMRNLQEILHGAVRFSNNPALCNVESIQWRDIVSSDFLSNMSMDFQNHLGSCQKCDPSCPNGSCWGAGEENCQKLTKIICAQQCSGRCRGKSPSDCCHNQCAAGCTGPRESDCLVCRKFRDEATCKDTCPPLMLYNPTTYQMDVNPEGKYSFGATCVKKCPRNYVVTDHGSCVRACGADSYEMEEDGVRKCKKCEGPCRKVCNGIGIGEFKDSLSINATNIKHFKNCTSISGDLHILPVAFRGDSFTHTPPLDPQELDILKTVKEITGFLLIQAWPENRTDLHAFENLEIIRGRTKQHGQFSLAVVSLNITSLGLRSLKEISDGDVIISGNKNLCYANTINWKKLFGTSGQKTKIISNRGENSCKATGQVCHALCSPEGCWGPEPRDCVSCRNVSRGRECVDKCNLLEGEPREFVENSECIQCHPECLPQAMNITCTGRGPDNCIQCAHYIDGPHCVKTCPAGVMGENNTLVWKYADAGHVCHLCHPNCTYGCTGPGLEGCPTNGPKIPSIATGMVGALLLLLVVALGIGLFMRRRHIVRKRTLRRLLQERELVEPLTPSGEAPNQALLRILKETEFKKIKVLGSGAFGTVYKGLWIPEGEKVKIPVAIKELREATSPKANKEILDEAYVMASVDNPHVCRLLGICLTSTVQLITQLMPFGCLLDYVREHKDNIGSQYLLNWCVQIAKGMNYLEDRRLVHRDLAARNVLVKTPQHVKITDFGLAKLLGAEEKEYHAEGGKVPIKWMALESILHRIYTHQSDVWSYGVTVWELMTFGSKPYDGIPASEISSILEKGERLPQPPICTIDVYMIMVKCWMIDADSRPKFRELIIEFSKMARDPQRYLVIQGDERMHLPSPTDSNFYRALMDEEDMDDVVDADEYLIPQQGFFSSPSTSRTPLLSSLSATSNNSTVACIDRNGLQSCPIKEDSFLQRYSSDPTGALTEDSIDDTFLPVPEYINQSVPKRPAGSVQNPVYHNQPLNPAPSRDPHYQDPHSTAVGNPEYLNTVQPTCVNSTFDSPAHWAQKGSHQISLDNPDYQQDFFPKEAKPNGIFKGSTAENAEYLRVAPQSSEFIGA
Chain of EGFR (P00533 25-1210): as above

Nc1ccc(-c2nc3ccccc3s2)cc1 [CJM 126, 2-(4-aminophenyl)benzothiazole]
LD50 ([1]; daily administration over 3 consecutive days): > 31 mg/kg/day | LD50 ([1]; male, DBA/2, mouse, in vivo, ip, single i.p. dose, read-out: LD50): ~125 mg/kg | IC50 ([2]; MDA 468, read-out: estimated IC50): ~1.6 nM | IC50 ([2]; column A, read-out: MDA 468 A IC50 at sub-micromolar concentrations): 1.6 nM | IC50 ([2]; 2nd series of experiments, read-out: IC50): 1.6 nM | IC50 ([3]; 2nd series of experiments): 43000 nM | IC50 ([3]; Homo sapiens, A2780, 1st series of experiments): 8.83 µg/mL | IC50 ([3]; Homo sapiens, A2780, 2nd series of experiments): 39000 nM | toxicity in panel [4]: essentially non-toxic | effect on growth [5]: No effect | Tumour weight (g) ([6]; 0.1mg/kg daily): .30 + .07 g | Cross section tumour area (mm) ([6]; 0.1mg/kg daily, Day 5): 97.75 ± 9.55 mm | Cross section tumour area (mm) ([6]; 0.1mg/kg daily, Day 12): 71.07 ± 7.2 mm | Cross section tumour area (mm) ([6]; 0.1mg/kg daily, Day 15): 82.17 + 1058 mm | Cross section tumour area (mm) ([6]; 0.1mg/kg daily, Day 19): 88.84 ± 3.69 mm | Cross section tumour area (mm) ([6]; 0.1mg/kg daily, Day 22): 105.66 ± 5.49 mm | Cross section tumour area (mm) ([6]; 0.1mg/kg daily, Day 26): 124.55 ± 7.90 mm | Cross section tumour area (mm) ([6]; 0.1mg/kg daily, Day 29): 182.15 ± 14.79 mm | Cross section tumour area (mm) ([6]; 0.1mg/kg daily, Day 32): 196.66 ± 18.65 mm | Tumour weight (g) ([6]; .001mg/kg daily): .19 + .08 g | Cross section tumour area (mm) ([6]; .001mg/kg daily, Day 5): 85.54 ± 19.44 mm | Cross section tumour area (mm) ([6]; .001mg/kg daily, Day 12): 52.93 ± 2.65 mm | Cross section tumour area (mm) ([6]; .001mg/kg daily, Day 15): 67.81 ± 12.92 mm | Cross section tumour area (mm) ([6]; .001mg/kg daily, Day 19): 64.8 ± 17.35 mm | Cross section tumour area (mm) ([6]; .001mg/kg daily, Day 22): 75.12 ± 20.05 mm | Cross section tumour area (mm) ([6]; .001mg/kg daily, Day 26): 81.53 ± 26.16 mm | Cross section tumour area (mm) ([6]; .001mg/kg daily, Day 29): 114.65 + 3457 mm | Cross section tumour area (mm) ([6]; .001mg/kg daily, Day 32): 129.06 ± 32.08 mm | Tumour weight (g) ([6]; .01mg/kg daily): .29 + .15 g | Cross section tumour area (mm) ([6]; .01mg/kg daily, Day 5): 120.78 ± 5.83 mm | Cross section tumour area (mm) ([6]; .01mg/kg daily, Day 12): 71.65 ± 11.67 mm | Cross section tumour area (mm) ([6]; .01mg/kg daily, Day 15): 78.21 ± 6.69 mm | Cross section tumour area (mm) ([6]; .01mg/kg daily, Day 19): 98.03 ± 33.51 mm | Cross section tumour area (mm) ([6]; .01mg/kg daily, Day 22): 117.02 ± 42.1 mm | Cross section tumour area (mm) ([6]; .01mg/kg daily, Day 26): 131.58 ± 23.41 mm | Cross section tumour area (mm) ([6]; .01mg/kg daily, Day 29): 164.90 ± 37.18 mm | Cross section tumour area (mm) ([6]; .01mg/kg daily, Day 32): 191.68 ± 45.65 mm | IC50 ([7]; MCF7, 1st series of experiments, initial decrease in cell growth, read-out: IC50): ~0.002 µg/mL | IC50 ([7]; MCF7, MCF 7-wt, phase 1, after drug removal, read-out: observed IC50 after drug removal): 2.18 nM | IC50 ([7]; MCF7, MCF 7-wt, read-out: estimated IC50): ~2.9 nM | IC50 ([7]; MCF7, first series of experiments, second decrease at even greater doses, read-out: IC50 of second decrease (biphasic dose response)): ~2 µg/mL | IC50 ([7]; MCF-wt, column A, read-out: MCF-wt A IC50 at sub-micromolar concentrations): 3 nM | inhibition of growth ([7]; MCF 7-wt, 1% FCS, presence of EGF, all concentrations 1nM-10µM): greater than 85% | times more sensitive than other human cell lines tested ([7]; first series of experiments, Table 1): about 3000 times | estimated IC50 ([7]; in the presence of 1% FCS): picomolar range | proliferation of colonies (2nd phase) ([7]; in the presence of 1% FCS, 3, 10, 30µM): no proliferation of colonies | effect on cell growth ([7]; 30nM and 100nM): maximum growth inhibition | effect on cell growth ([7]; exposure to 1µM, 3µM and 10µM): loss of growth arrest | Relative tumour volume (T/C%) ([8]; d9): 84% | Relative tumour volume (T/C%) ([8]; d13): 47* % | Relative tumour volume (T/C%) ([8]; d20): 38* % | Relative tumour volume (T/C%) ([8]; d27): 27* % | Relative tumour volume (T/C%) ([8]; d35): 27* % | Relative tumour volume (T/C%) ([8]; d43): 43* % | BWC (%) ([8]; relative to saline treated animals): -13% | inhibition of EGFR tyrosine kinase activity [9]: no apparent inhibition | signs of toxicity [10]: no signs of severe toxicity | displacement of iodinated EGF from EGFR [11]: no ability to displace | solubility [12]: ~3.8 µg/mL (≈ 16.8 µM) | IC50 [13]: 52000 nM | IC50 [14]: 27000 nM | stimulation ([15]; 2nd series of experiments, concentration giving stimulation): stimulation > 1µM | effect on cell growth ([15]; 3 and 10µM, seeding density 2.5 x 10^2 cells per well): induced proliferation

From patent EP0721336B1, “BENZAZOLE COMPOUNDS FOR USE IN THERAPY” (CANCER RESEARCH CAMPAIGN TECHNOLOGY LIMITED, priority 1993, dated 1995)
